From patent US20260103465A1, “GLYCOGEN SYNTHASE KINASE 3 INHIBITORS AND USES THEREOF” (The Broad Institute, Inc., priority 2023, published 2026)
Read-outs that look alike come from different tables or passages of the source.

Legend:
[1] = Human liver microsomal stability; type: in vitro ADME; conditions: human liver microsomes
Protocol: Stability of compound (5 μL of a 10 mM DMSO solution) in human liver microsomes was tested in duplicate by incubating compound at 1 μM for 60 minutes at 37° C. Compound level at 60 minutes was compared to level at 0 minutes, and percent remaining was calculated. Order by selecting Microsomal Stability in Prometheus, checking boxes for desired species. Assay Controls: microsomes with NADPH without compound-matrix interference. Microsomes plus compound without NADPH—non-enzymatic instability.

[2] = biological target: T1, GSK3b (GST-full length GSK3b) (Homo sapiens, UniProt P49841); assay: GSK3b TR-FRET kinase inhibition assay; type: biochemical
T1 construct: GST-full length GSK3b: [SignalChem G08-9G]; purchased SignalChem G08-9G
T1 sequence (P49841 whole entry): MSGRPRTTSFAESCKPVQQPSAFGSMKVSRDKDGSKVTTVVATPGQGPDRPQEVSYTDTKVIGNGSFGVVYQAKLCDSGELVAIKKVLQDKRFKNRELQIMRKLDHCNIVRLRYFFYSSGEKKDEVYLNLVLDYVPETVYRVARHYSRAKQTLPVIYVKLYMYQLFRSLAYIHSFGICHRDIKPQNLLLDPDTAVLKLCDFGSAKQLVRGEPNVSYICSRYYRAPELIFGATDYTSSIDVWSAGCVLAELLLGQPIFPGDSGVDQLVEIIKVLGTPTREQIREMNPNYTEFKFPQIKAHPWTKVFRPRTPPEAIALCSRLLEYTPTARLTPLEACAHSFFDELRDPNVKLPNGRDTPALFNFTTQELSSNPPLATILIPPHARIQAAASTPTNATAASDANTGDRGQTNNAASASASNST
Outline: (§1)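 GST-tagged full-length human kinase (1 nM), pre-incubated 30 min with compound, then reacted 100 min at ambient temperature at pH 7.5 with 200 nM biotinylated phospho-S645 glycogen synthase 631–650 peptide and ATP at 2 μM–1 mM. After EDTA quench, Tb-pSer641 antibody/streptavidin-d2 TR-FRET 665/615 ratio fitted for IC50.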

[3] = biological target: T2, GSK3a (GST-full length GSK3a) (Homo sapiens, UniProt P49840); assay: GSK3a TR-FRET kinase inhibition assay; type: biochemical
T2 construct: GST-full length GSK3a [SignalChem G08-10G]; purchased SignalChem G08-10G
T2 sequence (P49840 whole entry): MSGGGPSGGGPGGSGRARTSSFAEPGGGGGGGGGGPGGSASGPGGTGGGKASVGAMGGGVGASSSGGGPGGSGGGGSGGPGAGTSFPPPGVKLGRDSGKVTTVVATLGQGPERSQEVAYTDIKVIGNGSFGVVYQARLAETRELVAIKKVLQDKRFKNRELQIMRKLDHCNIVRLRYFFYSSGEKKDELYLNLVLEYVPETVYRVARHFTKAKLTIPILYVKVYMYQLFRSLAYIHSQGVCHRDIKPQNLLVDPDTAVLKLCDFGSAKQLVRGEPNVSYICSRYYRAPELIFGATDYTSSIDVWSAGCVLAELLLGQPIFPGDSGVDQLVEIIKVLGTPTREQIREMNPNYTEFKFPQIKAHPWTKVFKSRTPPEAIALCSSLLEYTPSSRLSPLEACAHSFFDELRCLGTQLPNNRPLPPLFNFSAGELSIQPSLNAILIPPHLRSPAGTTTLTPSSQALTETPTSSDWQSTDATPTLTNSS
Outline: as §1

[4] = system: MDR1-MDCK cell monolayers; assay: MDR1/MDCK permeability assay; type: in vitro ADME; conditions: for MDCK Permeability (MDR1-MDCK); Mean; Papp(A-B) (10^−6 cm/s): A to B; for MDCK Permeability (MDR1-MDCK); Mean; Papp(B-A) (10^−6 cm/s): B to A
Description: The MDR1/MDCK assay is run at WuXi and Absorption Systems. This assay is used to determine the blood-brain barrier (BBB) penetration potential of a test compound using MDR1-MDCK cell monolayers. Catalog number EA203.
• The percent recovery of the test compound from the Transwell® wells containing MDR1-MDCK cell monolayers • The apparent permeability (Papp) in both directions • The efflux ratio (Papp B to A)/(Papp A to B) • The blood-brain barrier penetration potential classification: • High when • Papp A to B≥3.0×10^−6 cm/s, and efflux<3.0 • Moderate when • Papp A to B≥3.0×10^−6 cm/s, and 10>efflux≥3.0 • Low when either • Papp A to B≥3.0×10^−6 cm/s, and […], or when • Papp A to B<[…].
• Test compound at 5 μM in HBSSg with maximum DMSO concentration not greater than 1%.
• Confluent monolayers of MDR1-MDCK cells, 7 to 11 days old.
• Receiver well with 1% BSA in modified Hanks buffer (HBSSg) • Apical and basolateral side at pH 7.4 • Dose two monolayers in each direction (N=2) • Dose apical side for (A to B) assessment • Dose basolateral side for (B to A) assessment • Sample both apical and basolateral sides at 120 minutes • Determine the concentrations of test compound using a generic LC-MS/MS method with a minimum 4 point calibration curve.
• The quality of the cell monolayer batch is verified using control compounds before monolayers are released for use • The quality of each monolayer used in the assay is verified by a TEER measurement and by calculating the Papp for a control compound.

[5] = 10 μM ATP, read-out: GSK3b 10 μM ATP Average IC50
[6] = 100 μM ATP, read-out: GSK3b 100 μM ATP Average IC50
[7] = 1 mM ATP, Table 3, read-out: GSK3b TR-FRET 1 mM ATP Average IC50
[8] = 10 μM ATP, read-out: GSK3a 10 μM ATP Average IC50
[9] = 100 μM ATP, read-out: GSK3a 100 μM ATP Average IC50
[10] = 1 mM ATP, Table 3, read-out: GSK3a TR-FRET 1 mM ATP Average IC50

| Structure (SMILES) | Microsome Stability (Human) (DMPK_BIIB); Mean; in vitro t1/2 ([1]; Table 3) [min] | Microsome Stability (Human) (DMPK_BIIB); Mean; in vitro t1/2 ([1]; Table 4) [min] | IC50 [2, 5] [µM] | IC50 [2, 6] [µM] | IC50 [2, 7] [µM] | IC50 [3, 8] [µM] | IC50 [3, 9] [µM] | IC50 [3, 10] [µM] | MDCK Permeability (MDR1-MDCK); Mean; Papp(A-B) (10^−6 cm/s) ([4]; Table 3) | MDCK Permeability (MDR1-MDCK); Mean; Papp(A-B) (10^−6 cm/s) ([4]; Table 4) | MDCK Permeability (MDR1-MDCK); Mean; Papp(B-A) (10^−6 cm/s) ([4]; Table 3) | MDCK Permeability (MDR1-MDCK); Mean; Papp(B-A) (10^−6 cm/s) ([4]; Table 4) | MIDCK Permeability (MDR1-MDCK); Mean; P. Ratio(B-A/A-B) Efflux Ratio ([4]; Papp B-A/A-B, Table 3) | MDCK Permeability (MDR1-MDCK); Mean; P. Ratio(B-A/A-B) Efflux Ratio ([4]; Papp B-A/A-B, Table 4) |
| --- | --- | --- | --- | --- | --- | --- | --- | --- | --- | --- | --- | --- | --- | --- |
| CCC1(c2ccccc2)C2=C(CC(C)(C)CC2=O)Nc2ncc(F)cc21 (single isomer, unassigned) [Compound 114A] | 49 | 37 | ≤ 0.1 | ≤ 0.1 | 1 to 5 | ≤ 0.1 | ≤ 0.1 | 0.1 to 1 | 23 10^−6 cm/s | 10 10^−6 cm/s | 16 10^−6 cm/s | 20 10^−6 cm/s | 0.68 | 2.0 |
| CC1(C)CC(=O)C2=C(C1)Nc1nccc(C(F)(F)F)c1C2(C)c1ccccc1 (single isomer, unassigned) [Compound 127A] | 8.3 | – | – | – | 0.1 to 1 | – | – | 0.1 to 1 | 17 10^−6 cm/s | – | 8.7 10^−6 cm/s | – | 0.50 | – |
| CC1(C)CC(=O)C2=C(C1)Nc1ncc(C(F)(F)F)cc1C2(C)c1ccccc1 (single isomer, unassigned) [Compound 128B] | >145 | – | – | – | 1 to 5 | – | – | 1 to 5 | 20 10^−6 cm/s | – | 10 10^−6 cm/s | – | 0.53 | – |
| CC(C)(C)Cc1cnc2c(c1)C(C)(c1ccccc1)C1=C(CC(C)(C)CC1=O)N2 (single isomer, unassigned) [Compound 129A] | 11 | – | 5 to 20 | 20 to 60 | 5 to 20 | 20 to 60 | – | – | 2.1 10^−6 cm/s | – | 1.2 10^−6 cm/s | – | 0.60 | – |
| CC(C)(C)Cc1cnc2c(c1)C(C)(c1ccccc1)C1=C(CC(C)(C)CC1=O)N2 (single isomer, unassigned) [Compound 129B] | 1.1 | – | 5 to 20 | 20 to 60 | 5 to 20 | 20 to 60 | – | 5 to 20 | 1.8 10^−6 cm/s | – | 1.0 10^−6 cm/s | – | 0.59 | – |
| CC(C)(C)Cc1ccnc2c1C(C)(c1ccccc1)C1=C(CC(C)(C)CC1=O)N2 (single isomer, unassigned) [Compound 130A] | 0.55 | – | ≤ 0.1 | 0.1 to 1 | 5 to 20 | ≤ 0.1 | 0.1 to 1 | 5 to 20 | 1.4 10^−6 cm/s | – | 0.65 10^−6 cm/s | – | 0.48 | – |
| CC(C)(C)Cc1ccnc2c1C(C)(c1ccccc1)C1=C(CC(C)(C)CC1=O)N2 (single isomer, unassigned) [Compound 130B] | 0.53 | – | 0.1 to 1 | 0.1 to 1 | 5 to 20 | 0.1 to 1 | 1 to 5 | 5 to 20 | 1.3 10^−6 cm/s | – | 0.75 10^−6 cm/s | – | 0.60 | – |
